This is an account of results in patent publication US8241846B1, “Hedgehog pathway modulation and uses thereof for treating, preventing and/or diagnosing cancer” (Institut de Recherches Cliniques de Montreal, priority 2008, dated 2012).

The structures appear in SMILES notation.

For this test, the system named is GCP purified from post-natal day 4 rat cerebellum. Kind of test: Ki-67 proliferation of electroporated GCP overexpressing BOC, with Shh and Smo inhibitor. The settings on record: 10 nM Shh plus SANT-1. Type of test: cell-based. The method, then:
GCP purified from post-natal day 4 rat cerebellum were co-electroporated with either a combination of BOC with a red fluorescence protein expressing plasmids (BOC) or with a control empty plasmid with a red fluorescence protein expressing plasmid (control). Proliferation was evaluated by measuring the percentage of Ki-67 positive cells among electroporated cells in absence or in presence of sonic hedgehog (Shh) and also in presence of Shh in combination with an inhibitor of Smo (SANT-1);
GCP purified from post-natal day 4 rat cerebellum were co-electroporated with either a combination of a plasmid containing a nucleic acid encoding murine BOC with a red fluorescent protein (RFP)-expressing plasmids (BOC) (both genes under the control of the chicken beta-actin promoter) or with a control empty plasmid with a red fluorescent protein-expressing plasmid (control). Proliferation was evaluated by measuring the percentage of Ki-67-positive cells among electroporated cells in the presence or absence of Shh. In addition, the role of the Hh signalling protein Smoothened (Smo) was tested using an inhibitor of Smo (SANT-1) in combination with Shh.

Take `Cc1nn(-c2ccccc2)c(C)c1/C=N/N1CCN(Cc2ccccc2)CC1` [SANT-1]: the “effect on BOC-mediated increase in percentage of Ki-67-positive cells” value is recorded as “prevents this increase”.
